Measured values taken from paper PMC11570452, “MOTS-c modulates skeletal muscle function by directly binding and activating CK2” (iScience, 2024).
Peptide text beside a SMILES is read from it.

Tests used:
[1] = system: skeletal muscle (gastrocnemius) glucose uptake; test: In vivo skeletal muscle 2-deoxyglucose (2DG) uptake; set-up: species or system mouse (C57BL/6J)
Method: 2-deoxyglucose (2-DG) uptake experiment: Male C57BL/6J mice at 14–15 weeks of age were received sham injection (injected nothing) for seven days before the experiment to acclimated to the invasive stimulus by the injection. A selective CK2 inhibitor CX-4945 (MCE) was dissolved in 0.9% saline containing 5% DMSO. After 120 min of fasting, mice were intraperitoneally injected with a CK2 inhibitor at 25 mg/kg or vehicle.[45] Two hours later, mice were injected insulin at 0.75 U/kg (MilliporeSigma) and MOTS-c at 7.5 mg/kg (GenScript) or sterilized water. Then 10 min later, 5 μg of 2DG (Sigma-Aldrich) was injected.[46] Mice were euthanized 45 min after 2DG injection and gastrocnemius muscle was collected. The collected samples were stored at −80°C for further analyses. The entire gastrocnemius muscle was used for the analysis to avoid potential bias.
To measure glucose uptake into mouse skeletal muscle, 2-DG uptake measurement kit was used (Cosmo Bio). Gastrocnemius muscle samples were homogenized in 10 mM tris-HCL (pH. 8.1) and then incubated at 95°C for 15 min. Samples were centrifuged for 15 min at 17,800 g (4°C), and the supernatant was diluted in 10 mM tris-HCl.[66] Diluted samples ([…]) were used for further analysis according to the manufacturer’s instructions (Cosmo Bio Co.).

CK2α = target: T1, CK2α (Homo sapiens, UniProt P68400); test: Surface plasmon resonance (Biacore assay), CK2α; type: binding; conditions: SPR, peptide immobilized, CK2α flowed
T1 construct: purchased GenScript
Description: Figure 2 MOTS-c directly binds and activates CK2 in cell-free systems (A–C) Dot blot assays with (A) CK2 complex (contains both CK2α and CK2β subunits) immobilized, MOTS-c flowed over the membrane, and detected by MOTS-c antibody. (B–C) MOTS-c immobilized, CK2 complex flowed over the membrane, and detected by CK2α (B) and CK2β (C) antibodies. (D) CK2α or CK2β immobilized, MOTS-c flowed over the membrane, and detected by MOTS-c antibody. FO, flow over; IB, immunoblotting. (E): Surface plasmon resonance (Biacore assay) of MOTS-c (10 μg/mL) and CK2α (2.5 nM, 5.0 nM, 10 nM, and 20 nM). MOTS-c was immobilized on the sensor chip and CK2α flowed over the sensor chip. KD, dissociation constant. (F) Molecular docking simulation of the binding between MOTS-c and CK2α by using AlphaFold2. (G) CK2 activity assessed by kinase activity assay with/without MOTS-c in cell-free condition. […]
The kinetics of MOTS-c WT/K14Q (GenScript) and CK2α (GenScript)/β (IBL) were assessed by using surface plasmon resonance (Biacore T200, Cytiva). […] Then, since we detected the binding signal only with CK2α, CK2α was flowed (30 μL/min) over the sensor chip at 2.5 nM, 5.0 nM, 10 nM, and 20 nM in running buffer (0.01M HEPES, 0.15 M NaCl, 0.3 mM EDTA, and 0.05% tween). After each concentration of CK2α was assessed, CK2α was removed using 4 mM and 5 mM Sodium Hydroxide for MOTS-c and K14Q MOTS-c, respectively. […]

[2] = Plasma MOTS-c levels after MOTS-c administration; type: in vivo, mouse (C57BL/6J); conditions: single IP 7.5 mg/kg, young mice, n = 5 per time point
Method: Figure 3 MOTS-c modulates CK2 activity in a tissue-specific manner (A) Experimental design of a single MOTS-c administration (7.5 mg/kg) experiment in young mice (n = 5 per time point). (B) Plasma MOTS-c levels after MOTS-c administration. ∗: p < 0.05 versus time 0. (C) Quantification of CK2 activity assessed by western blotting in each tissue shown in ([…]). (E–F) CK2 activity assessed by western blotting with p-CK2 substrate antibody in gastrocnemius muscle (D), epididymal fat (E), and liver (F) after MOTS-c administration. ∗p < 0.05, ∗∗p < 0.01 versus time 0 in same tissue. (G–I) MOTS-c detection following CK2α immunoprecipitation (IP) in gastrocnemius muscle (G), epididymal fat (H), and liver (I) 30 min after MOTS-c administration (7.5 mg/kg). The "-" indicates tissues from non-MOTS-c administered mice, while the "+" indicates tissues from MOTS-c administered mice. (J–K) CK2 activity after 10 min MOTS-c treatment (10 μM) in differentiated skeletal muscle (J) and adipocyte (K). Data are represented as mean ± SEM for (B, C, J, and K).
Acute MOTS-c administration experiment: Male C57BL/6J mice at 10–12 weeks of age were randomly assigned to one of the experimental time points: 0 min, 15 min, 30 min, or 180 min. MOTS-c ([…]) was administered by intraperitoneal injection. At each time point, plasma was collected under anesthesia with isoflurane. […]

T1 sequence (P68400 whole entry): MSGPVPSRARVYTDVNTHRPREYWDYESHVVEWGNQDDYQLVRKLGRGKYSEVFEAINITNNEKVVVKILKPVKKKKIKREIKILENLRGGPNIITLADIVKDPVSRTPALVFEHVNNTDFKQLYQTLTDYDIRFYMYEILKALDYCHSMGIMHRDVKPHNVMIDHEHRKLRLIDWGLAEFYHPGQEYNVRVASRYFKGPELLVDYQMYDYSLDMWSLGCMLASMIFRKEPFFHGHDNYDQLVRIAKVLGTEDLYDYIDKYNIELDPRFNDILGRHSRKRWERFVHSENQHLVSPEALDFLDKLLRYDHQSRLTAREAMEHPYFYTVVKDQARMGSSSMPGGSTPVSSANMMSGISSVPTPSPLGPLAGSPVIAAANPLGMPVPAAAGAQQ

SMILES: O=C(O)c1ccc2c(c1)nc(Nc1cccc(Cl)c1)c1ccncc12 [CX-4945]
- Muscle glucose uptake, CK2 inhibitor co-administered with MOTS-c ([1]; CX-4945 25 mg/kg + MOTS-c 7.5 mg/kg): prevented the increase in muscle glucose uptake by MOTS-c
- Muscle glucose uptake with CK2 inhibitor alone ([1]; CX-4945 25 mg/kg IP 2 h before insulin 0.75 U/kg, p = 0.053, n = 10-11 per group): decreased muscle glucose uptake (p = 0.053)

SMILES: CC[C@H](C)[C@H](NC(=O)[C@H](Cc1ccc(O)cc1)NC(=O)CNC(=O)[C@H](CCSC)NC(=O)[C@H](CCC(=O)O)NC(=O)[C@H](CCC(N)=O)NC(=O)[C@H](Cc1c[nH]c2ccccc12)NC(=O)[C@H](CCCNC(=N)N)NC(=O)[C@@H](N)CCSC)C(=O)N[C@@H](Cc1ccccc1)C(=O)N[C@@H](Cc1ccc(O)cc1)C(=O)N1CCC[C@H]1C(=O)N[C@@H](CCCNC(=N)N)C(=O)N[C@@H](CCC(N)=O)C(=O)N[C@@H](CC(C)C)C(=O)N[C@@H](CCCNC(=N)N)C(=O)O [K14Q MOTS-c] (H-MRWQEMGYIFYPRQLR-OH)
- Reciprocal of KD (CK2α): 0.062 nM⁻¹

SMILES: CC[C@H](C)[C@H](NC(=O)[C@H](Cc1ccc(O)cc1)NC(=O)CNC(=O)[C@H](CCSC)NC(=O)[C@H](CCC(=O)O)NC(=O)[C@H](CCC(N)=O)NC(=O)[C@H](Cc1c[nH]c2ccccc12)NC(=O)[C@H](CCCNC(=N)N)NC(=O)[C@@H](N)CCSC)C(=O)N[C@@H](Cc1ccccc1)C(=O)N[C@@H](Cc1ccc(O)cc1)C(=O)N1CCC[C@H]1C(=O)N[C@@H](CCCNC(=N)N)C(=O)N[C@@H](CCCCN)C(=O)N[C@@H](CC(C)C)C(=O)N[C@@H](CCCNC(=N)N)C(=O)O [MOTS-c] (H-MRWQEMGYIFYPRKLR-OH)
- Reciprocal of KD (CK2α): 1.0 nM⁻¹
- MOTS-c levels in plasma [2]: increased MOTS-c levels in plasma
